Measured values: patent publication US11401264B2, “Heterocyclic compound” (Orizuru Therapeutics, Inc., priority 2018, dated 2022)

Tested on: cardiomyocytes from double knock-in human iPS cell lines (mCherry at TNNI3 locus)
Assay: Experimental Example 1: mCherry (TNNI3 reporter) immunostaining measured by high contents screening
Format: cell-based
Parameters: key to average fluorescent intensity (at 30 μM): —: The symbol in Table 2 means that the average fluorescent intensity cannot be evaluated due to cell decrease
Details: read on 8th day, Alexa 647 anti-mCherry, control well 797
In short: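 Double knock-in iPS lines (EmGFP at TNNI1, mCherry at TNNI3) differentiated as embryoid bodies in stirred bioreactor at 37 °C, 5% O2: BMP4/activin A/bFGF, then VEGF, IWP-3, dorsomorphin, SB431542, then VEGF alone. On day 14, dissociated cells seeded at 1.0×10^4 cells/well on iMatrix-511 in AK02-based cardiomyocyte medium.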

O=C1c2ccc(N3CCOCC3)cc2CN1c1ccc2[nH]c(-c3ccc(Br)cc3)nc2c1 [Example 8, 2-(2-(4-bromophenyl)-1H-benzimidazol-5-yl)-5-(morpholin-4-yl)isoindolin-1-one]
average fluorescent intensity (at 1 μM) (test compound 1 μM added on 3rd and 6th culture days): 985
average fluorescent intensity (at 30 μM) (test compound 30 μM added on 3rd and 6th culture days): —
